Results published in PMC3154929, “Phosphatase-Coupled Universal Kinase Assay and Kinetics for First-Order-Rate Coupling Reaction” (PLoS ONE, 2011).

Target: T1, human glucokinase (GCK) (Homo sapiens, UniProt P35557)
T1 construct: V16 to Q465, N-terminal 6xHis tag, expressed in E. coli
T1 sequence (P35557 16-465): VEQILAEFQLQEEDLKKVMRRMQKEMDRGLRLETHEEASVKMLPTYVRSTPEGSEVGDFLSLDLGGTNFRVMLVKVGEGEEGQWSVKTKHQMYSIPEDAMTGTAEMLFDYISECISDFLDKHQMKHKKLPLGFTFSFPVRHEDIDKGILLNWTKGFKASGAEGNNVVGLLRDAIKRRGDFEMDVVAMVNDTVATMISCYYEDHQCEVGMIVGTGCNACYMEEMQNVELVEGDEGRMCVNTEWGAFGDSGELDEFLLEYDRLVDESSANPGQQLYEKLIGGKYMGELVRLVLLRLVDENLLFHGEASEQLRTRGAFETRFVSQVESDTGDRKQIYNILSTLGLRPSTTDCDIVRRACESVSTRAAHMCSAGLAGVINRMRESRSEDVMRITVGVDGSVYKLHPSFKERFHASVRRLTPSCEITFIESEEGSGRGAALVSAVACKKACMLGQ
Assay: CD39L2-coupled malachite green phosphate assay, OD620
Assay type: biochemical
Settings: 0.12 mM ATP, 10 mM MgCl2, 10 mM CaCl2, 150 mM NaCl, 25 mM Tris pH 7.5, room temperature

Compound `OC[C@H]1OC(O)[C@H](O)[C@@H](O)[C@@H]1O` (stereo partly shown) [glucose] has a Km of 7.23 ± 1.44 mM.
